Laboratory results as given in paper PMC11205445, “Babesia duncani Pyruvate Kinase Inhibitor Screening and Identification of Key Active Amino Acid Residues” (Microorganisms, 2024).
“And” between values parts separate entries of the source, which are not always exact repeats. Equal entries are not always repeated. Where two headings read alike, the source gives them in different places.

Columns and labels:
[1] = system: B. duncani; assay: In vitro growth inhibition assay of Babesia duncani (SYBR Green, 72 h); type: cell-based; details: for parasite growth inhibition: at approximately 40 μM
[2] = system: HFF cells; parameters: method as in PMID 34603237; details: cited from earlier work
[3] = biological target: T1, BdPyK I (Babesia duncani, UniProt A0AAD9PKI2); assay: BdPyK I enzyme inhibition, indirect coupled lactate dehydrogenase assay (NADH at 340 nm); type: biochemical
T1 sequence (A0AAD9PKI2 entry or part of it): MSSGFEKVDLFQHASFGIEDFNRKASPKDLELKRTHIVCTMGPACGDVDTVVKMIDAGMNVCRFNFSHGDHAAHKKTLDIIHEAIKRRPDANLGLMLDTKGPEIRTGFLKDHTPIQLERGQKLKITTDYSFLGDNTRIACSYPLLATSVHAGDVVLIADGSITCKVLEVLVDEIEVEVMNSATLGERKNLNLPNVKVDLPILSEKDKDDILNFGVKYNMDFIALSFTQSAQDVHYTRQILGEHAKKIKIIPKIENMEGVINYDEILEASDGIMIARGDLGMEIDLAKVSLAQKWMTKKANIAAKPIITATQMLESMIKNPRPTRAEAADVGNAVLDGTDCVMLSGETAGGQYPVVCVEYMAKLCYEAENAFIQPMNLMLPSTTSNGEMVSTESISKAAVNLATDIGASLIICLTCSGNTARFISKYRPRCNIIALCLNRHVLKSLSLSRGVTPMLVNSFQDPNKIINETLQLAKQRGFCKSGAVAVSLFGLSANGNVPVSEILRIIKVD
Description: This study aimed to investigate the effects of six small-molecule compounds on the enzyme activity of BdPyK I. These selected compounds, including PKM2 inhibitor, shikonin, tannic acid, apigenin, pioglitazone, and rosiglitazone, were initially dissolved in their respective stock concentrations using dimethyl sulfoxide (DMSO) or absolute ethanol as solvents. Subsequently, an indirect coupling lactate dehydrogenase assay was employed to evaluate the influence of these compounds on BdPyK I enzyme activity.
To conduct standard enzyme kinetics analysis, we employed a spectrophotometer (BioTek, located in Winooski, VT, USA) to monitor the degradation of NADH at 340 nm wavelength. At 37 °C, the oxidation of 1 micromole of NADH per minute was defined as one unit of PyK activity. Samples were measured continuously at 2, 7, 12, 17, 22, and 27 min. In order to investigate the influence of pH, Mg^2+, and K^+ concentrations on activity, tests were conducted within the pH range of 4.0–8.0 and Mg^2+ and K^+ concentrations ranging from 0 to 200 mM, including concentrations of 0, 25, 50, 75, 100, 125, 150, 175, and 200 mM. A reaction system with a total volume of […] was designed, comprising 50 mM Tris-HCl buffer (pH 7.5), 50 mM MgCl2, 20 mM KCl, 3 mM PEP (MilliporeSigma), 3 mM ADP (MilliporeSigma), 0.5 mM NADH (MilliporeSigma), 100 ng recombinant lactate dehydrogenase (rBdLDH), and 100 ng BdPyK I. Enzyme activity was assessed by calculating the initial rate of NADH degradation within the first 5 min and determining the relative percentage activity.
Under the conditions of 3 mM PEP and 3 mM ADP, the influence of six different small-molecule compounds on the enzymatic activity of BdPyK I was investigated across varying concentrations (0–500 μM). […] The group with the addition of DMSO was designated as the negative control group. The inhibition rate was calculated using the following formula: Inhibitor (%) = (ΔAcontrol − ΔAsample)/ΔAcontrol × 100%. All experiments were independently repeated three times to enhance the reliability and accuracy of the results. Following completion of the experiments, enzyme activity data were analyzed using GraphPad Prism 8.0 software. IC50 values for each small-molecule compound were calculated using software analysis functions. The IC50 value represents the compound concentration required to decrease enzyme activity by 50% and serves as a fundamental parameter for evaluating the inhibitory effect of compounds on enzyme activity.

[4] = system: HFF cells; assay: Cytotoxicity assay, HFF cells; type: cell-based; details: CC50 HFF versus IC50 B. duncani
Description: (§1) The IC50 value represents a standard metric indicating the concentration of a drug or compound necessary to impede a biological process or inhibit cell growth. In this experiment, the IC50 values of six different compounds against B. duncani in vitro were compared with their IC50 values for BdPyK I activity. […] To contextualize these findings, the CC50 values for vero cells and HFF cells from cytotoxicity assay data were considered collectively. […] Considering the activity, selectivity, and potential toxicity, this study conducted a comprehensive evaluation of the selectivity index (SI).

[5] = system: vero cells; parameters: method as in PMID 34603237; details: cited from earlier work
[6] = system: vero cells; assay: Cytotoxicity assay, vero cells; type: cell-based; details: CC50 Vero versus IC50 B. duncani
Description: as §1

[7] = parameters: method as in PMID 34603237; details: in vivo experiments with Babesia rodents; cited from earlier work
[8] = biological target: T1, BdPyK I; assay: Enzyme kinetics of BdPyK I with gradient concentrations of substrates PEP and ADP; details: substrate of BdPyK I
Description: (§2) To conduct standard enzyme kinetics analysis, we employed a spectrophotometer (BioTek, located in Winooski, VT, USA) to monitor the degradation of NADH at 340 nm wavelength. At 37 °C, the oxidation of 1 micromole of NADH per minute was defined as one unit of PyK activity. Samples were measured continuously at 2, 7, 12, 17, 22, and 27 min. In order to investigate the influence of pH, Mg^2+, and K^+ concentrations on activity, tests were conducted within the pH range of 4.0–8.0 and Mg^2+ and K^+ concentrations ranging from 0 to 200 mM, including concentrations of 0, 25, 50, 75, 100, 125, 150, 175, and 200 mM. A reaction system with a total volume of 200 mL was designed, comprising 50 mM Tris-HCl buffer (pH 7.5), 50 mM MgCl2, 20 mM KCl, 3 mM PEP (MilliporeSigma), 3 mM ADP (MilliporeSigma), 0.5 mM NADH (MilliporeSigma), 100 ng recombinant lactate dehydrogenase (rBdLDH), and 100 ng BdPyK I. Enzyme activity was assessed by calculating the initial rate of NADH degradation within the first 5 min and determining the relative percentage activity.
(§3) Subsequently, Michaelis–Menten equations for the reactants PEP and ADP were formulated based on gradient concentrations, and corresponding enzyme kinetics curves were delineated.

[9] = system: Nc1ncnc2c1ncn2[C@@H]1O[C@H](COP(=O)(O)OP(=O)(O)O)[C@@H](O)[C@H]1O; assay: purified protein, by the assay type; details: other: substrate of BdPyK I, gradient concentration; pH 7.5; 37.0 °C
Description: as §2, §3

[10] = system: C=C(OP(=O)(O)O)C(=O)O; assay: purified protein, by the assay type; details: other: substrate of BdPyK I, gradient concentration; pH 7.5; 37.0 °C
Description: as §2, §3

[11] = biological target: BdLDH; assay: Effect of compounds on BdLDH enzyme activity (counter-screen of the coupled assay); type: biochemical, Babesia duncani; details: BdLDH activity evaluated separately
[12] = Babesia duncani, in vitro culture, 72 h, Table 3, read-out: IC50 B. duncani
[13] = 3 mM PEP and 3 mM ADP, compound 0–500 μM, read-out: IC50 PyK I
[14] = Babesia duncani, 72 h incubation, SYBR Green, read-out: IC50 of B. duncani growth inhibition (Figure 10)

| Compound | IC50 [1, 12] [µM] | CC50 [2] [µM] | IC50 [3, 13] [µM] | Selectivity Index (SI) HFF [4] | CC50 [5] [µM] | Selectivity Index (SI) Vero [6] | other results |
| --- | --- | --- | --- | --- | --- | --- | --- |
| CC1=C(CSC(=S)N2CCCCC2)C(=O)c2ccccc2C1=O [PKM2 inhibitor] | 0.16 ± 0.08 | 18.7 ± 1.99 | 10.9 | 116 | 39.3 ± 8.32 | 243 | growth inhibition rate ([1]; at approximately 2 μM, 72 h): 85% |
| O=c1cc(-c2ccc(O)cc2)oc2cc(O)cc(O)c12 [Apigenin] | 2.81 ± 1.06 | 36 ± 2.95 | – | 12.8 | 58.2 ± 2.67 | 20.64 | toxicity in vivo [7]: high toxicity; IC50 [3]: 7.49 µM |
| CC(C)=CC[C@@H](O)C1=CC(=O)c2c(O)ccc(O)c2C1=O [Shikonin] | 3.68 ± 0.48 | 0.63 ± 0.32 | 16.5 | 0.17 | 2.34 ± 0.29 | 0.64 | – |
| Nc1ncnc2c1ncn2[C@@H]1O[C@H](COP(=O)(O)OP(=O)(O)O)[C@@H](O)[C@H]1O [ADP] | – | – | – | – | – | – | Kcat [8]: 16 S^−1; Vmax ([8]; gradient concentration): 0.3234 ± 0.018 mM/min |
| CCc1ccc(CCOc2ccc(CC3SC(=O)NC3=O)cc2)nc1 (stereo not shown) [Pioglitazone] | – | – | 27.5 | – | – | – | IC50 [1, 14]: 15.4 µM; parasite growth inhibition ([1]; 72 h): 80% |
| BdPyK I (Babesia duncani) | – | – | – | – | – | – | Km [9]: 310 µM and 313.6 ± 24 µM; Km [10]: 450 ± 104 µM; Vmax [10]: 370 µM/min; kcat [10]: 18.3 s⁻¹; kcat/Km [10]: 40100 M⁻¹ s⁻¹ |
| CN(CCOc1ccc(CC2SC(=O)NC2=O)cc1)c1ccccn1 (stereo not shown) [Rosiglitazone] | – | – | 7.36 | – | – | – | IC50 [1, 14]: 20.9 µM; parasite growth inhibition ([1]; 72 h): 80% |
| Tannic acid | – | 36.5 ± 3.88 | 0.03 | – | 53 ± 2.37 | – | IC50 ([1]; in vitro culture, 72 h, Table 3, read-out: IC50 B. duncani): 1.71 ± 0.33 µM; IC50 ([3]; 3 mM PEP and 3 mM ADP, read-out: IC50 on BdPyK I (Figure 9)): 0.0332 µM; IC50 ([3]; Table 3, read-out: IC50 PyK I Activity): 0.03 µM; IC50 [11]: 1.32 µM |
